Patent US12485075B2, “Particulates of polyphenolics and dispersions thereof” (priority 2020, dated 2025)

Assays:
[1] = cited from earlier work
[2] = test system: human skin explants; assay: Intracellular ROS scavenging activity assay, HEV exposure; format: cell-based; conditions: HEV exposure 412 nm and 450 nm
Procedure: Intracellular Reactive Oxygen Species (ROS) Scavenging Activity Assays were conducted on human skin explants from donors of skin Phototype II. The skin explants were treated with, a non-fluorescent probe, 2′, 7′-Dichlorofluorescein diacetate (DCFHDA). […] DCFH-DA is taken up by cells by passive diffusion and DCFH-DA is deacetylated by cellular esterases to non-fluorescent DCFH, which is trapped within cells. The fluorescent 2′, 7′-dichlorofluorescein (DCF) is generated upon enzymatic reduction and subsequent oxidation by ROS. Fluorescence was measured and correlates to the test item's ability to scavenge ROS. The results are presented as percentage reduction of ROS relative to the level generated following UVA/UVB exposure of unprotected skin.

[3] = test system: human skin explants; assay: Intracellular ROS scavenging activity assay, solar simulated UVA/UVB exposure; format: cell-based
Procedure: Intracellular Reactive Oxygen Species (ROS) Scavenging Activity Assays were conducted on human skin explants from donors of skin Phototype II. The skin explants were treated with, a non-fluorescent probe, 2′, 7′-Dichlorofluorescein diacetate (DCFHDA). After treatment, the skin explants were treated with the moisturizer compositions at a dose of 2 mg/cm^2 and exposed to solar simulated UVA/UVB at doses of 70 mJ/cm^2 in triplicate. DCFH-DA is taken up by cells by passive diffusion and DCFH-DA is deacetylated by cellular esterases to non-fluorescent DCFH, which is trapped within cells. The fluorescent 2′, 7′-dichlorofluorescein (DCF) is generated upon enzymatic reduction and subsequent oxidation by ROS. Fluorescence was measured and correlates to the test item's ability to scavenge ROS. The results are presented as percentage reduction of ROS relative to the level generated following UVA/UVB exposure of unprotected skin. The results of these studies are shown in the Table below and presented as percentage reduction in intracellular ROS relative to unprotected skin. […] These associated skin protective effects include but are not limited to suppressing lipid peroxidation in the skin, preventing or reducing the appearance of lines and wrinkles in skin, preventing loss of elasticity of skin, preventing thinning of skin, and preventing pigment darkening of skin.

## C[C@@H]1O[C@@H](OC[C@H]2O[C@@H](Oc3c(-c4ccc(O)c(O)c4)oc4cc(O)cc(O)c4c3=O)[C@H](O)[C@@H](O)[C@@H]2O)[C@H](O)[C@H](O)[C@H]1O [Rutin, quercetin-3-O-rutinoside]
[1]
  solubility in bulk oils, such as soybean oil: 0.1 % by weigh

## Cc1c(C)c2c(c(C)c1O)CCC(C)(CCCC(C)CCCC(C)CCCC(C)C)O2 (racemic) [DL-alpha-tocopherol]
[2]
  reduction in ROS, result in words: no statistically significant reduction in ROS
[3]
  reduction in ROS, result in words: statistically significant reduction in ROS
